# Assay results from US20220313662A1, “SUCCINATE DEHYDROGENASE INHIBITORS FOR BREAKING DORMANCY” (Valent BioSciences LLC, priority 2021, published 2022).
# Legend:
# Format in all cases: in vivo
# Concord grape vines [1] = assay: Example 1: bud break and shoot weight of potted Concord grape vines in a greenhouse; conditions: for Shoot Weight / shoot weight, more than control: 41 days after treatment; for time to 50% bud break, faster than control: rates of Table 1: malonate 3,000 and 10,000 ppm, penthiopyrad 1,428 ppm, inpyrfluxam 486 ppm, pydiflumetofen 968 ppm
# Procedure: (§1) To assess the ability of SDHIs to promote and synchronize bud break and increase shoot weight, SDHIs were applied to shoots of potted 1 year old Concord grape vines grown in a greenhouse and examined for bud break (initiation of growth). Hydrogen cyanamide, malonate (malonic acid), inpyrfluxam, penthiopyrad and pydiflumetofen were each applied individually to the shoots of five potted concord grape rootstocks that were pruned to 5 nodes. Plants were evaluated for bud break periodically starting at 5 days after treatment. Plants were evaluated for shoot weight at 41 days after treatment.
# Concord grape vines [2] = assay: Example 2: bud break and shoot weight of potted Concord grape vines, single SDHIs and mixtures (OCE/ECE, Abbott method); conditions: for Shoot Weight: 41 days after treatment
# Procedure: as §1, with “of” for “of potted”, “old potted” for “old”, “inpyrfluxam,” for “inpyrfluxam, penthiopyrad”, “mixtures of malonate and inpyrfluxam” for “pydiflumetofen”, “applied” for “applied individually”
# To determine if the mixtures provided unexpected results, the observed combined efficacy (“OCE”) was divided by the expected combined efficacy (“ECE”) to give an OCE/ECE ratio wherein the expected ECE is calculated by the Abbott method: […]
# wherein ECE is the expected combined efficacy and in which A and B are the efficacy provided by the single active ingredients. If the ratio between the OCE of the mixture and the ECE of the mixture is greater than 1, then greater than expected interactions are present in the mixture. (Gisi, The American Phytopathological Society, 86:11, 1273-1279, 1996).
# Thompson seedless grapes [3] = assay: Example 3: field trial, bud break and shoot growth of Thompson seedless grapes; set-up: Shoot Growth: unit not given beside the values; conditions: for Shoot Growth: equals sum of the three length classes
# Thompson seedless grapes [4] = assay: as above
# Procedure: Thompson seedless grapes were grown in the field in Kanoneiland, Northern Cape, South Africa during the 2021 growing season. Hydrogen cyanamide, malonate (malonic acid), and inpyrfluxam were each applied to the shoots of grape plants at 2 or 4 weeks before natural bud break. Plants were evaluated for bud break at 7 and 21 days after 1st bud break.
# [5] = 2% v/v, 4 weeks before natural bud break
# [6] = 2% v/v, applied 4 weeks before natural bud break
# [7] = 486 ppm, applied 2 weeks before natural bud break
# [8] = 486 ppm, applied 4 weeks before natural bud break
# [9] = 486 ppm (Table 4), 2 weeks before natural bud break
# [10] = 486 ppm, 2 weeks before natural bud break
# [11] = 486 ppm, 4 weeks before natural bud break
# [12] = applied at 10,000 ppm to shoots
# [13] = 10,000 ppm, applied 2 weeks before natural bud break
# [14] = 10,000 ppm, applied 4 weeks before natural bud break
# [15] = 10,000 ppm (Table 4), 2 weeks before natural bud break
# [16] = 10,000 ppm, 2 weeks before natural bud break
# [17] = 10,000 ppm, 4 weeks before natural bud break
smiles,measurement,setting,value
"N#CN [Hydrogen cyanamide, hydrogen cyanamide]",Days to 50% BB,Concord grape vines [1]; applied at 2% v/v to shoots,12 days
same,Days to 100% BB,Concord grape vines [1]; applied at 2% v/v to shoots,17 days
same,Shoot Weight,Concord grape vines [1]; applied at 2% v/v,27.4 g
same,effect on the number of days to 50% bud break (in words),"Concord grape vines [1]; rates of Table 1, hydrogen cyanamide 2% v/v",no effect
same,Days to 50% BB,Concord grape vines [2]; applied at 2% v/v to shoots,18 days
same,Days to 100% BB,Concord grape vines [2]; applied at 2% v/v to shoots,16 days
same,Shoot Weight,Concord grape vines [2]; applied at 2% v/v,8.9 g
same,Shoot Growth (%) 1-5 cm,Thompson seedless grapes [3]; [5],21.7%
same,Shoot Growth (%) 5-10 cm,Thompson seedless grapes [3]; [5],16.1%
same,Shoot Growth (%) >10 cm,Thompson seedless grapes [3]; [5],29.3 c %
same,Shoot Growth,Thompson seedless grapes [3]; [5],67.2
same,Bud Break % at 7 days after 1st bud break,Thompson seedless grapes [3]; [6],63.2 b %
same,Bud Break % at 21 days after 1st bud break,Thompson seedless grapes [3]; [6],81.3 bcd %
"CC1CC(C)(C)c2c(F)ccc(NC(=O)c3cn(C)nc3C(F)F)c21 (stereo not shown) [Inpyrfluxam, inpyrfluxam]","shoot weight, more than control",Concord grape vines [1]; 486 ppm (Table 1),44%
same,Days to 50% BB,Concord grape vines [1]; applied at 486 ppm to shoots,9 days
same,Days to 100% BB,Concord grape vines [1]; applied at 486 ppm to shoots,17 days
same,Shoot Weight,Concord grape vines [1]; applied at 486 ppm,47 g
same,"time to 50% bud break, faster than control",Concord grape vines [1],about 25%
same,"time to 50% bud break, faster than control",Concord grape vines [2]; 486 ppm,about 12%
same,"time to 100% bud break, faster than control",Concord grape vines [2]; 486 ppm,19%
same,"time to 100% bud break, faster than control",Concord grape vines [2]; 972 ppm,38%
same,Days to 50% BB,Concord grape vines [2]; applied at 97.2 ppm to shoots,27 days
same,Days to 100% BB,Concord grape vines [2]; applied at 97.2 ppm to shoots,17 days
same,Shoot Weight,Concord grape vines [2]; applied at 97.2 ppm,9.1 g
same,Days to 50% BB,Concord grape vines [2]; applied at 194.4 ppm to shoots,29 days
same,Days to 100% BB,Concord grape vines [2]; applied at 194.4 ppm to shoots,28 days
same,Shoot Weight,Concord grape vines [2]; applied at 194.4 ppm,5.4 g
same,Days to 50% BB,Concord grape vines [2]; applied at 486 ppm to shoots,22 days
same,Days to 100% BB,Concord grape vines [2]; applied at 486 ppm to shoots,13 days
same,Shoot Weight,Concord grape vines [2]; applied at 486 ppm,7.6 g
same,Days to 50% BB,Concord grape vines [2]; applied at 972 ppm to shoots,27 days
same,Days to 100% BB,Concord grape vines [2]; applied at 972 ppm to shoots,10 days
same,Shoot Weight,Concord grape vines [2]; applied at 972 ppm,6.2 g
same,Bud Break % at 7 days after 1st bud break,Thompson seedless grapes [4]; [7],29.7 a %
same,Bud Break % at 21 days after 1st bud break,Thompson seedless grapes [4]; [7],100 f %
same,Bud Break % at 21 days after 1st bud break,"Thompson seedless grapes [4]; 486 ppm, applied 2 weeks before natural bud break, listed as inpyrfluxam",statistically significant increase over control
same,Bud Break % at 7 days after 1st bud break,Thompson seedless grapes [4]; [8],36.8 a %
same,increase in shoot growth over Dormex,Thompson seedless grapes [3]; [9],15%
same,increase in shoot growth over control,Thompson seedless grapes [3]; [9],50%
same,increase in shoot growth over control,"Thompson seedless grapes [3]; 486 ppm (Table 4), 4 weeks before natural bud break",27%
same,Shoot Growth (%) 1-5 cm,Thompson seedless grapes [3]; [10],27.7%
same,Shoot Growth (%) 5-10 cm,Thompson seedless grapes [3]; [10],21.1%
same,Shoot Growth (%) >10 cm,Thompson seedless grapes [3]; [10],28.8 c %
same,Shoot Growth,Thompson seedless grapes [3]; [10],77.6
same,Shoot Growth (%) 1-5 cm,Thompson seedless grapes [3]; [11],25.9%
same,Shoot Growth (%) 5-10 cm,Thompson seedless grapes [3]; [11],20.3%
same,Shoot Growth (%) >10 cm,Thompson seedless grapes [3]; [11],19.7 b %
same,Shoot Growth,Thompson seedless grapes [3]; [11],65.8
same,Bud Break % at 21 days after 1st bud break,Thompson seedless grapes [3]; [8],90.3 def %
same,Bud Break % at 21 days after 1st bud break,"Thompson seedless grapes [3]; 486 ppm, applied 4 weeks before natural bud break, listed as inpyrfluxam",statistically significant increase over control
"O=C(O)CC(=O)O [Malonate, malonic acid]","days to 100% bud break, faster than control","Concord grape vines [1]; 3,000 ppm",10%
same,"shoot weight, more than control","Concord grape vines [1]; 3,000 ppm",28%
same,"days to 100% bud break, faster than control","Concord grape vines [1]; 10,000 ppm",19%
same,"shoot weight, more than control","Concord grape vines [1]; 10,000 ppm",58%
same,Days to 50% BB,"Concord grape vines [1]; applied at 3,000 ppm to shoots",7 days
same,Days to 100% BB,"Concord grape vines [1]; applied at 3,000 ppm to shoots",19 days
same,Shoot Weight,"Concord grape vines [1]; applied at 3,000 ppm",41.75 g
same,Days to 50% BB,Concord grape vines [1]; [12],7 days
same,Days to 100% BB,Concord grape vines [1]; [12],17 days
same,Shoot Weight,"Concord grape vines [1]; applied at 10,000 ppm",51.4 g
same,"time to 50% bud break, faster than control",Concord grape vines [1],about 40%
same,"time to 50% bud break, faster than control","Concord grape vines [2]; 1,000 ppm, 3,000 ppm and 10,000 ppm",about 4%
same,"time to 100% bud break, faster than control","Concord grape vines [2]; 10,000 ppm",25%
same,Days to 50% BB,Concord grape vines [2]; applied at 300 ppm to shoots,25 days
same,Days to 100% BB,Concord grape vines [2]; applied at 300 ppm to shoots,20 days
same,Shoot Weight,Concord grape vines [2]; applied at 300 ppm,8.0 g
same,Days to 50% BB,"Concord grape vines [2]; applied at 1,000 ppm to shoots",24 days
same,Days to 100% BB,"Concord grape vines [2]; applied at 1,000 ppm to shoots",26 days
same,Shoot Weight,"Concord grape vines [2]; applied at 1,000 ppm",8.8 g
same,Days to 50% BB,"Concord grape vines [2]; applied at 3,000 ppm to shoots",24 days
same,Days to 100% BB,"Concord grape vines [2]; applied at 3,000 ppm to shoots",17 days
same,Shoot Weight,"Concord grape vines [2]; applied at 3,000 ppm",8.5 g
same,Days to 50% BB,Concord grape vines [2]; [12],24 days
same,Days to 100% BB,Concord grape vines [2]; [12],12 days
same,Shoot Weight,"Concord grape vines [2]; applied at 10,000 ppm",7.9 g
same,Bud Break % at 7 days after 1st bud break,Thompson seedless grapes [4]; [13],33.7 a %
same,Bud Break % at 21 days after 1st bud break,Thompson seedless grapes [4]; [13],statistically significant increase over control
same,Bud Break % at 7 days after 1st bud break,Thompson seedless grapes [4]; [14],29 a %
same,increase in shoot growth over Dormex,Thompson seedless grapes [3]; [15],11%
same,increase in shoot growth over control,Thompson seedless grapes [3]; [15],44%
same,increase in shoot growth over control,"Thompson seedless grapes [3]; 10,000 ppm (Table 4), 4 weeks before natural bud break",20%
same,Shoot Growth (%) 1-5 cm,Thompson seedless grapes [3]; [16],23.3%
same,Shoot Growth (%) 5-10 cm,Thompson seedless grapes [3]; [16],19.1%
same,Shoot Growth (%) >10 cm,Thompson seedless grapes [3]; [16],32 c %
same,Shoot Growth,Thompson seedless grapes [3]; [16],74.5
same,Shoot Growth (%) 1-5 cm,Thompson seedless grapes [3]; [17],27.7%
same,Shoot Growth (%) 5-10 cm,Thompson seedless grapes [3]; [17],17.8%
same,Shoot Growth (%) >10 cm,Thompson seedless grapes [3]; [17],16.6 b %
same,Shoot Growth,Thompson seedless grapes [3]; [17],62
same,Bud Break % at 21 days after 1st bud break,Thompson seedless grapes [3]; [13],98.2 ef %
same,Bud Break % at 21 days after 1st bud break,Thompson seedless grapes [3]; [14],87.5 cde %
"CC(C)CC(C)c1sccc1NC(=O)c1cn(C)nc1C(F)(F)F (stereo not shown) [Penthiopyrad, penthiopyrad]","days to 100% bud break, faster than control","Concord grape vines [1]; 1,428 ppm (Table 1)",38%
same,Days to 50% BB,"Concord grape vines [1]; applied at 1,428 ppm to shoots",7 days
same,Days to 100% BB,"Concord grape vines [1]; applied at 1,428 ppm to shoots",13 days
same,Shoot Weight,"Concord grape vines [1]; applied at 1,428 ppm",29.4 g
same,"time to 50% bud break, faster than control",Concord grape vines [1],about 40%
"CON(C(=O)c1cn(C)nc1C(F)F)C(C)Cc1c(Cl)cc(Cl)cc1Cl (stereo not shown) [Pydiflumetofen, pydiflumetofen]",Days to 50% BB,Concord grape vines [1]; applied at 968 ppm to shoots,9 days
same,Days to 100% BB,Concord grape vines [1]; applied at 968 ppm to shoots,26 days
same,Shoot Weight,Concord grape vines [1]; applied at 968 ppm,24 g
same,"time to 50% bud break, faster than control",Concord grape vines [1],about 25%
